ChEMBL document CHEMBL1144176, “Synthesis and biological evaluation of indolyl bisphosphonates as anti-bone resorptive and anti-leishmanial agents” (Bioorg Med Chem, 2008)
In brackets after ≈: the same amount, converted by molar mass. Activity calls are given as the source filed them. The calls are words filed in the database; no cut-off is given here.

What was measured:
Leishmania donovani [1] = test: Antileishmanial activity against Leishmania donovani MHOM/IN/80/Dd8 promastigotes infected in mouse J774A1 cells at 2000 ug/mL after 96 hrs by MTT assay relative to control; assay type: functional, organism-based; conditions: J774.A1
Leishmania donovani [2] = test: Antileishmanial activity against Leishmania donovani MHOM/IN/80/Dd8 promastigotes infected in mouse J774A1 cells at 1000 ug/mL after 96 hrs by MTT assay relative to control; assay type: functional, organism-based; conditions: J774.A1
Leishmania donovani [3] = test: Antileishmanial activity against Leishmania donovani MHOM/IN/80/Dd8 promastigotes infected in mouse J774A1 cells at 500 ug/mL after 96 hrs by MTT assay relative to control; assay type: functional, organism-based; conditions: J774.A1
Leishmania donovani [4] = test: Antileishmanial activity against Leishmania donovani MHOM/IN/80/Dd8 amastigotes infected in mouse J774A1 cells at 200 ug/mL after 72 hrs by MTT assay relative to control; assay type: functional, organism-based; conditions: J774.A1
Leishmania donovani [5] = test: Antileishmanial activity against Leishmania donovani MHOM/IN/80/Dd8 amastigotes infected in mouse J774A1 cells at 100 ug/mL after 72 hrs by MTT assay relative to control; assay type: functional, organism-based; conditions: J774.A1
Leishmania donovani [6] = test: Antileishmanial activity against Leishmania donovani MHOM/IN/80/Dd8 amastigotes infected in mouse J774A1 cells at 50 ug/mL after 72 hrs by MTT assay relative to control; assay type: functional, organism-based; conditions: J774.A1
Leishmania donovani [7] = test: Antileishmanial activity against Leishmania donovani MHOM/IN/80/Dd8 amastigotes infected in mouse J774A1 cells at 25 ug/mL after 72 hrs by MTT assay relative to control; assay type: functional, organism-based; conditions: J774.A1
[8] = Cytotoxicity against Sprague-Dawley rat calvarial osteoblast cells at 10 pM to 1 uM after 48 hrs by MTT assay; assay type: cell-based
Bone marrow cell [9] = test: Antibone resorptive activity in mouse bone marrow cells assessed as inhibition of osteoclastogenesis at 100 nM after 7 days by TRAP assay in presence of MCSF and RANKL; assay type: functional, cell-based
Leishmania donovani [10] = test: Antileishmanial activity against Leishmania donovani MHOM/IN/80/Dd8 promastigotes infected in mouse J774A1 cells at 10 ug/mL after 96 hrs by MTT assay relative to control; assay type: functional; conditions: for inhibition at 10 µg/mL: MHOM/IN/80/Dd8, J774.A1, 96 h; for Activity: J774.A1
Leishmania donovani [11] = test: Antileishmanial activity against Leishmania donovani MHOM/IN/80/Dd8 promastigotes infected in mouse J774A1 cells at 6.25 ug/mL after 96 hrs by MTT assay relative to control; assay type: functional; conditions: MHOM/IN/80/Dd8, J774.A1, 96 h
Leishmania donovani [12] = test: Antileishmanial activity against Leishmania donovani MHOM/IN/80/Dd8 amastigotes infected in mouse J774A1 cells at 5 ug/mL after 72 hrs by MTT assay relative to control; assay type: functional; conditions: MHOM/IN/80/Dd8, J774.A1, 72 h
Leishmania donovani [13] = test: Antileishmanial activity against Leishmania donovani MHOM/IN/80/Dd8 amastigotes infected in mouse J774A1 cells at 2 ug/mL after 72 hrs by MTT assay relative to control; assay type: functional; conditions: MHOM/IN/80/Dd8, J774.A1, 72 h
Leishmania donovani [14] = test: Antileishmanial activity against Leishmania donovani MHOM/IN/80/Dd8 amastigotes infected in mouse J774A1 cells at 1 ug/mL after 72 hrs by MTT assay relative to control; assay type: functional; conditions: MHOM/IN/80/Dd8, J774.A1, 72 h
Leishmania donovani [15] = test: Antileishmanial activity against Leishmania donovani MHOM/IN/80/Dd8 amastigotes infected in mouse J774A1 cells after 72 hrs by MTT assay; assay type: functional, organism-based; conditions: MHOM/IN/80/Dd8, J774.A1, 72 h
[16] = Cytotoxicity against mouse J774A1 cells after 72 hrs by MTT assay; assay type: cell-based, J774.A1
Bone marrow cell [17] = test: Antibone resorptive activity in mouse bone marrow cells assessed as inhibition of osteoclastogenesis at 100 pM after 7 days by TRAP assay in presence of MCSF and RANKL; assay type: functional, cell-based
Osteoclast [18] = test: Induction of apoptosis in mouse osteoclast cells assessed as nucleosomal DNA fragmentation at 100 nM after 48 hrs by Hoechst 33258 staining; assay type: functional, cell-based
Mus musculus [19] = test: Antibone resorptive activity in BALB/c ovariectomized mouse bone marrow cells assessed as inhibition of osteoclastogenesis at 10 mg/kg by TRAP assay relative to control in presence of MCSF and RANKL; assay type: functional; design: scale not given: the % may be the effect or the level left
Mus musculus [20] = test: Induction of osteoclastogenesis in BALB/c ovariectomized mouse bone marrow cells at 10 mg/kg by TRAP assay relative to sham group in presence of MCSF and RANKL; assay type: functional
Leishmania donovani [21] = test: Antileishmanial activity against Leishmania donovani MHOM/IN/80/Dd8 amastigotes infected in mouse J774A1 cells at 10 ug/mL after 72 hrs by MTT assay relative to control; assay type: functional; conditions: for inhibition at 10 µg/mL: MHOM/IN/80/Dd8, J774.A1, 72 h; for Activity: J774.A1
Osteoclast [22] = test: Induction of apoptosis in mouse osteoclast cells assessed as nucleosomal DNA fragmentation at 10 pM after 48 hrs by Hoechst 33258 staining; assay type: functional, cell-based
Bone marrow cell [23] = test: Antibone resorptive activity in mouse bone marrow cells assessed as inhibition of osteoclastogenesis at 10 pM after 7 days by TRAP assay in presence of MCSF and RANKL; assay type: functional, cell-based

Sodium Stibogluconate
inhibition (Leishmania donovani [1]): 72.8% | inhibition (Leishmania donovani [2]): 55.5% | inhibition (Leishmania donovani [3]): 29.1% | inhibition (Leishmania donovani [4]): 99.8% | inhibition (Leishmania donovani [5]): 78.8% | inhibition (Leishmania donovani [6]): 48.4% | inhibition (Leishmania donovani [7]): 11.4%

CCOP(=O)(OCC)C(O)(CCCCn1c2c(c3ccccc31)CCCc1ccccc1-2)P(=O)(OCC)OCC
Activity [8]: Not Active | Activity (Bone marrow cell [9]): Active | inhibition at 10 µg/mL (Leishmania donovani [10]): 99.8% | inhibition at 6.25 µg/mL (Leishmania donovani [11]): 86.4% | inhibition at 5 µg/mL (Leishmania donovani [12]): 78.3% | inhibition at 2 µg/mL (Leishmania donovani [13]): 80.6% | inhibition at 1 µg/mL (Leishmania donovani [14]): 3% | IC50 (Leishmania donovani [15]): 24 µg/mL (≈ 40.6 µM) | CC50 at 72 h [16]: 5.81 µg/mL (≈ 9.82 µM)

CCOP(=O)(OCC)C(O)(CCCCCn1c2c(c3ccccc31)CCSc1ccccc1-2)P(=O)(OCC)OCC
Activity [8]: Not Active | Activity (Bone marrow cell [9]): inactive | Activity (Bone marrow cell [17]): Active | Activity (Osteoclast [18]): Active | Activity (Mus musculus [19]): 9% | Activity (Mus musculus [20]): 40% | inhibition at 10 µg/mL (Leishmania donovani [10]): 100% | inhibition at 6.25 µg/mL (Leishmania donovani [11]): 99.6% | inhibition at 10 µg/mL (Leishmania donovani [21]): 78.2% | inhibition at 5 µg/mL (Leishmania donovani [12]): 58.8% | inhibition at 2 µg/mL (Leishmania donovani [13]): 16.8% | inhibition at 1 µg/mL (Leishmania donovani [14]): 4.2% | IC50 (Leishmania donovani [15]): 1.69 µg/mL (≈ 2.71 µM) | CC50 at 72 h [16]: 3.66 µg/mL (≈ 5.87 µM)

CCOP(=O)(OCC)C(O)(CCCCn1c2c(c3ccccc31)CCSc1ccccc1-2)P(=O)(OCC)OCC
Activity [8]: Not Active | Activity (Bone marrow cell [9]): inactive | Activity (Bone marrow cell [17]): Active | Activity (Osteoclast [22]): Active | Activity (Bone marrow cell [23]): Active | Activity (Mus musculus [19]): 8.4% | Activity (Mus musculus [20]): 40% | inhibition at 10 µg/mL (Leishmania donovani [10]): 27.8% | inhibition at 10 µg/mL (Leishmania donovani [21]): 9.45%

O=P([O-])([O-])C(O)(Cn1c2c(c3ccccc31)CCSc1ccccc1-2)P(=O)([O-])[O-].[Na+].[Na+].[Na+].[Na+]
Activity [8]: Active | Activity (Leishmania donovani [10]): inactive | inhibition at 10 µg/mL (Leishmania donovani [21]): 33.5%

O=P([O-])([O-])C(O)(CCCn1c2c(c3ccccc31)CCSc1ccccc1-2)P(=O)([O-])[O-].[Na+].[Na+].[Na+].[Na+]
Activity [8]: Active | Activity (Leishmania donovani [10]): inactive | inhibition at 10 µg/mL (Leishmania donovani [21]): 6.3%

O=P([O-])([O-])C(O)(CCCCn1c2c(c3ccccc31)CCSc1ccccc1-2)P(=O)([O-])[O-].[Na+].[Na+].[Na+].[Na+]
Activity [8]: Not Active | Activity (Bone marrow cell [9]): Active | Activity (Leishmania donovani [10]): inactive | inhibition at 10 µg/mL (Leishmania donovani [21]): 55.3%

CCOP(=O)(OCC)C(O)(CCCCn1c2c(c3ccccc31)CCOc1ccccc1-2)P(=O)(OCC)OCC
Activity [8]: Active | inhibition at 10 µg/mL (Leishmania donovani [10]): 39.4% | Activity (Leishmania donovani [21]): inactive

CCOP(=O)(OCC)C(O)(CCCCCCn1c2c(c3ccccc31)CCSc1ccccc1-2)P(=O)(OCC)OCC
Activity [8]: Not Active | Activity (Bone marrow cell [9]): Active | inhibition at 10 µg/mL (Leishmania donovani [10]): 100% | inhibition at 6.25 µg/mL (Leishmania donovani [11]): 90.1% | inhibition at 10 µg/mL (Leishmania donovani [21]): 85% | inhibition at 5 µg/mL (Leishmania donovani [12]): 67.2% | inhibition at 2 µg/mL (Leishmania donovani [13]): 40% | inhibition at 1 µg/mL (Leishmania donovani [14]): 25.5% | IC50 (Leishmania donovani [15]): 2.56 µg/mL (≈ 4.01 µM) | CC50 at 72 h [16]: 4.5 µg/mL (≈ 7.06 µM)

O=P([O-])([O-])C(O)(CCn1c2c(c3ccccc31)CCSc1ccccc1-2)P(=O)([O-])[O-].[Na+].[Na+].[Na+].[Na+]
Activity [8]: Active | inhibition at 10 µg/mL (Leishmania donovani [10]): 23.5% | Activity (Leishmania donovani [21]): inactive

CCOP(=O)(OCC)C(O)(CCCCCn1c2c(c3ccccc31)CCCc1ccccc1-2)P(=O)(OCC)OCC
Activity [8]: Not Active | inhibition at 10 µg/mL (Leishmania donovani [10]): 85.7% | inhibition at 6.25 µg/mL (Leishmania donovani [11]): 26.1% | Activity (Leishmania donovani [21]): Toxic

NCCCC(O)(P(=O)(O)O)P(=O)(O)O
Activity (Bone marrow cell [9]): Active
